Earlier results in paper PMC11839890 (European Journal of Nuclear Medicine and Molecular Imaging, 2024).

Legend:
A431-CCK2R cells = settings: cited from earlier work
A431-CCK2R xenografts = settings: in vivo; cited from earlier work

## [^177Lu]Lu-DOTA-PP-F11N: 177Lu-labelled DOTA-(DGlu)6-Ala-Tyr-Gly-Trp-Nle-Asp-Phe-NH2 (AYGW; 177Lu-DOTA-(DGlu)6, Nle-Asp-Phe-NH2; printed: Ala-Tyr-Gly-Trp-)
A431-CCK2R cells; A431-CCK2R cells, nM printed only with the first value of the sentence
  Bmax: 0.54 ± 0.10 nM
A431-CCK2R cells; same cell line (A431-CCK2R), nM printed only with the PP-F11N value
  Kd: 50 ± 7.3 nM
A431-CCK2R xenografts
  tumour uptake: ~ 7 %ID/g
